From patent publication US6096743A, “1,2,3,4-tetrahydroquinoxalinedione derivative” (Yamanouchi Pharmaceuticals Co., Ltd., priority 1994, dated 2000)
≈ marks a conversion by molar mass, not a printed value. Where two headings read alike, the source gives them in different places.

Columns and labels:
[1] = tested on: experimental animal models suffering from neuropathy, epilepsy or cerebral ischemia; conditions: in vivo; cited from earlier work
[2] = tested on: experimental animal models suffering from cerebral ischemia; conditions: in vivo; cited from earlier work
[3] = tested on: DBA/2 mouse (audiogenic seizure); assay: audiogenic seizure inhibitory action in DBA/2 mouse; format: in vivo; conditions: ip, 0.25 h, intraperitoneal, 15 minutes before stimulation by sound of 12 kHz and 120 dB, male 21 to 28-day-old mice, read-out: minimum effective dose (MED), suppression of audiogenic seizure
Method: 3) Measurement of audiogenic seizure inhibitory action in DBA/2 mouse
Ten male 21 to 28-day-old mice were exposed to auditory and stimulation by the sound of 12 kHz and 120 dB in a sound proof box for one minute or until these mice cause tonic seizure. The test compound was suspended in a 0.5% methylcellulose solution or dissolved in physiological saline and the resulting suspension or solution was intraperitoneally administered 15 minutes before the stimulation by the sound. The drug efficacy was evaluated by presence or absence of the appearance of seizure and the minimum effective dose (MED) was determined.

[4] = solubility in phosphate buffers of pH 5, 6, 7 and 8; format: physicochemical; conditions: aqueous buffer
Method: 4) Measurement of solubility
To a 0.1M aqueous solution of potassium dihydrogenphosphate, a 0.1M aqueous solution of […] was added, whereby buffers having pH of 5, 6, 7 and 8 were prepared, respectively.
Measurement of Solubility:
About 5 mg portions of the invention compound were weighed precisely in four glass test tubes and 0.1 ml phosphate buffers having pH 5, 6, 7 and 8 were added, respectively, followed by thorough shaking. The value obtained in accordance with the following equation was taken as the solubility. [formula]

[5] = tested on: hippocampal neuron (kainic acid neurotoxicity); assay: inhibitory activity against kainic acid neurotoxicity in primary culture of hippocampal neurons (LDH release); format: cell-based; conditions: 300 μM kainic acid, 24 hours, fetal rat hippocampal neuron, read-out: IC50, inhibition of neuronal death caused by kainic acid
Method: 2) Measurement of inhibitory activity against kainic acid neurotoxicity:
Inhibitory action of the invention compound against kainic acid neurotoxicity was investigated using the primary culture system of the hippocampal neuron of a fetal rat.
(1) Incubation conditions
The hippocamp was cut out from a brain of the 18 to 20-day-old fetal rat and was subjected to enzyme treatment with papain and DNase I to disperse the cells. The cells so obtained were floated on MEM containing 10% serum and then were inoculated on a 48-well plate treated in advance with poly-I-lysine in a concentration of 4×10^5 cell/cm^2. Twenty four hours later, the serum was replaced by a serum-free medium. The medium replacement was carried out twice a week. The cells which were cultivated for at least 6 days were provided for the following test.
(2) Inhibition against kainic acid neurotoxicity
Neurotoxicity was expressed by an activity of lactate dehydrogenase released in the culture medium by the cell death. As a control, neurons which were exposed to a serum-free medium containing 300 μM kainic acid for 24 hours were used. Each compound, together with 300 μM kainic acid, was allowed to act on the neuron for 24 hours and inhibitory action of each compound against neuronal death caused by kainic acid was evaluated.

AMPA receptor = assay: inhibitory activity against the binding of [3H]-AMPA (rat cerebral membrane); conditions: about 45 nM [3H]-AMPA, 45 minutes on ice water, non-specific: 10 μM quisqualic acid, read-out: Ki value, inhibition of [3H]-AMPA binding
Method: Inhibitory activity against the binding with [^3 H]-AMPA, kainic acid neurotoxicity and audiogenic seizure were confirmed as follows:
1) Measurement of inhibitory activity against the binding of [^3 H]-AMPA:
On ice water, 0.5 ml in total of a reaction liquid containing about 45 nM [^3 H]-AMPA [2-amino-3-(3-hydroxy-5-methyl-4-isoxazolyl)propionic acid], about […] of a sample of a rat cerebral membrane and a test compound was reacted for 45 minutes. The amount of [^3 H]-AMPA bound to the AMPA receptor was measured by the filtration method. A portion substituted by 10 μM quisqualic acid in the total bound amount was taken as the specific binding amount. Evaluation of the test compound was carried out by determining the binding inhibition ratio against the specific binding.

AMPA/kainate receptor = conditions: cited from earlier work
neuronal culture system = conditions: substance alone; cited from earlier work
[6] = phosphate buffer pH 6, read-out: solubility, pH 6

In the case of `NC(CCCP(=O)(O)O)C(=O)O` (stereo not shown) [2-amino-5-phosphonovalerianic acid], the “effect in experimental animal models of neuropathy, epilepsy or cerebral ischemia (in words)” value [1] is listed as “effective”.

In the case of `NC(CCCCCP(=O)(O)O)C(=O)O` (stereo not shown) [2-amino-7-phosphonoheptanic acid], the “effect in experimental animal models of neuropathy, epilepsy or cerebral ischemia (in words)” value [1] is listed as “effective”.

For `NS(=O)(=O)c1cccc2c1c([N+](=O)[O-])cc1[nH]c(=O)c(=O)[nH]c12` [NBQX], the “effect in experimental animal models of cerebral ischemia (in words)” value [2] is given as “effective”.

For `NC1CCN(O)C1=O` (stereo not shown) [HA-966], the “effect in experimental animal models of cerebral ischemia (in words)” value [2] is listed as “effective”.

Compound `O=C(O)Cn1c(=O)c(=O)[nH]c2cc([N+](=O)[O-])c(-n3ccnc3)cc21` [Example 1, 2-[2,3-dioxo-7-(1H-imidazol-1-yl)-6-nitro-1,2,3,4-tetrahydroquinoxalin-1-yl]acetic acid] has a minimal effective dose [3] of 3 mg/kg, a solubility ([4]; phosphate buffer pH 5, read-out: solubility, pH 5) of 2490 µg/mL (≈ 7.51 mM) and a solubility [4, 6] of 2620 µg/mL (≈ 7.91 mM). For the same compound, the solubility ([4]; phosphate buffer pH 7, read-out: solubility, pH 7) was 3640 µg/mL (≈ 11 mM), the solubility ([4]; phosphate buffer pH 8, read-out: solubility, pH 8) was 5130 µg/mL (≈ 15.5 mM) and the IC50 [5] was 800 nM. For the same compound, the Ki (AMPA receptor) was 730 nM.

For `C=C(C)[C@H]1CN[C@H](C(=O)O)[C@H]1CC(=O)O` [kainic acid], the “affinity with the AMPA/kainate receptor (in words)” value (AMPA/kainate receptor) is given as “low affinity” and the “neuronal cell death in neuronal culture (in words)” value (neuronal culture system) is given as “causes marked neuronal cell death”.

In the case of `Cc1onc(O)c1CC(N)C(=O)O` (stereo not shown) [AMPA, 2-amino-3-(3-hydroxy-5-methyl-4-isoxazolyl)propionic acid], the “affinity with the AMPA/kainate receptor (in words)” value (AMPA/kainate receptor) is given as “high affinity” and the “neuronal cell death in neuronal culture (in words)” value (neuronal culture system) is given as “weak”.

Compound `O=C(O)Cn1c(=O)c(=O)[nH]c2cc(C(F)(F)F)c(-n3ccnc3)cc21` [Example 9, 2-[2,3-dioxo-7-(1H-imidazole-1-yl)-6-trifluoromethyl-1,2,3,4-tetrahydroquinoxalin-1-yl]acetic acid] has a minimal effective dose [3] of 10 mg/kg, a solubility [4, 6] of 4100 µg/mL (≈ 11.6 mM) and an IC50 [5] of 960 nM. The Ki (AMPA receptor) was 93 nM.

`O=C(O)Cn1c(=O)c(=O)[nH]c2cc(OCc3ccccc3)c(-n3ccnc3)cc21` [Example 19, 2-[6-benzyloxy-2,3-dioxo-7-(1H-imidazol-1-yl)-1,2,3,4-tetrahydroquinoxalin-1-yl]acetic acid] gave a minimal effective dose [3] of 1 mg/kg, an IC50 [5] of 480 nM and a Ki (AMPA receptor) of 70 nM.
